Experimental data as given in patent US20250332173A1, “COMPOUNDS AND METHODS FOR MODULATING NUCLEIC ACID SPLICING” (REMIX THERAPEUTICS INC., priority 2021, published 2025).
Where two headings read alike, the source gives them in different places.

What was measured:
[1] = system: MYB mRNA; experiment: RT-qPCR splicing assay, MYB canonical junction (CJ) and alternative junction (AJ) mRNA; type: cell-based, human; conditions: Homo sapiens; for AC50: increase in MYB alternative junction (AJ) mRNA, read-out: MYB AJ AC50
How it was run: (§1)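 A673 or K562 cells were treated for 24 h at 37 °C with an 11-point 3-fold compound dilution series (top final concentration 10 uM, DMSO ≤0.25%). After lysis, one-step TaqMan RT-qPCR quantified junction transcripts, normalized to PPIA for A673 or to GAPDH/GUSB for K562.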

[2] = system: K562 (human chronic myelogenous leukemia) cells; experiment: Cell Titer Glo 2.0 cell viability assay; type: cell-based; conditions: Homo sapiens, K562, 72 h, K562 cells, 72 hours, Cell Titer Glo 2.0; read-out: K562 GI50
[3] = system: HTT mRNA; experiment: RT-qPCR splicing assay, HTT canonical junction (CJ) and alternative junction (AJ) mRNA; type: cell-based, human; conditions: Homo sapiens; for AC50: increase in HTT alternative junction (AJ) mRNA, read-out: HTT AJ AC50
How it was run: as §1

[4] = Table 5 panel, canonical junction qPCR, compound concentration having 50% response in CJ decrease, read-out: MYB IC50 (decrease in CJ mRNA levels)
[5] = decrease in MYB canonical junction (CJ) mRNA, RT-qPCR, read-out: MYB CJ IC50
[6] = decrease in HTT canonical junction (CJ) mRNA, RT-qPCR, read-out: HTT CJ IC50
[7] = Table 5 panel, canonical junction qPCR, compound concentration having 50% response in CJ decrease, read-out: HTT IC50 (decrease in CJ mRNA levels)

`Cc1cn2nc(-c3cc(F)c4c(=O)n(C5CCN(C)CC5)ccc4c3)cc(C)c2n1` [Compound 400, 6-(2,8-dimethylimidazo[1,2-b]pyridazin-6-yl)-8-fluoro-2-(1-methylpiperidin-4-yl)isoquinolin-1(2H)-one] showed an IC50 [1, 4] of under 100 nM, an IC50 [1, 5] of under 100 nM and an AC50 ([1]; RT-qPCR) of under 100 nM. The GI50 [2] was 100 to 1000 nM, the IC50 [3, 6] was under 100 nM and the AC50 ([3]; RT-qPCR) was under 100 nM. The IC50 [3, 7] was under 100 nM.
`Cc1cn2nc(-c3cc(O)c4c(=O)n(C5CCNC5)ccc4c3)cc(C)c2n1` (stereo not shown) [Compound 432, 6-{2,8-dimethylimidazo[1,2-b]pyridazin-6-yl}-8-hydroxy-2-(pyrrolidin-3-yl)isoquinolin-1-one] gave an IC50 [1, 4] of under 100 nM, an IC50 [1, 5] of 100 to 1000 nM and an AC50 ([1]; RT-qPCR) of under 100 nM. It also gave a GI50 [2] of 1000 to 10000 nM, an IC50 [3, 6] of 1000 to 10000 nM and an AC50 ([3]; RT-qPCR) of 1000 to 10000 nM. It also gave an IC50 [3, 7] of 1000 to 10000 nM.
Work on `Cc1cn2cc(-c3cc(F)c4c(=O)n([C@@H]5CCNC5)ccc4c3)cc(F)c2n1` (single isomer, unassigned) [Compound 395] yielded an IC50 [1, 4] of under 100 nM, an IC50 [1, 5] of 100 to 1000 nM and an AC50 ([1]; RT-qPCR) of under 100 nM. It also gave a GI50 [2] of 100 to 1000 nM, an IC50 [3, 6] of 1000 to 10000 nM and an AC50 ([3]; RT-qPCR) of 1000 to 10000 nM. For the same compound, the IC50 [3, 7] was 1000 to 10000 nM.
In the case of `Cc1cn2cc(-c3cc(F)c4c(=O)n(C5CCNCC5)ccc4c3)cc(C#N)c2n1` [Compound 383, 6-[8-fluoro-1-oxo-2-(piperidin-4-yl)isoquinolin-6-yl]-2-methylimidazo[1,2-a]pyridine-8-carbonitrile], the IC50 [1, 4] is reported as under 100 nM, the IC50 [1, 5] is reported as under 100 nM and the AC50 ([1]; RT-qPCR) is reported as under 100 nM. For the same compound, the GI50 [2] was 100 to 1000 nM, the IC50 [3, 6] was 1000 to 10000 nM and the AC50 ([3]; RT-qPCR) was 100 to 1000 nM. For the same compound, the IC50 [3, 7] was 100 to 1000 nM.
`Cc1cn2nc(-c3ccc4c(=O)n(C5CCNCC5)cc(C)c4c3)cc(C)c2n1` [Compound 381, 6-{2,8-dimethylimidazo[1,2-b]pyridazin-6-yl}-4-methyl-2-(piperidin-4-yl)isoquinolin-1-one] showed an IC50 [1, 4] of under 100 nM, an IC50 [1, 5] of under 100 nM and an AC50 ([1]; RT-qPCR) of under 100 nM. For the same compound, the GI50 [2] was 100 to 1000 nM, the IC50 [3, 6] was 100 to 1000 nM and the AC50 ([3]; RT-qPCR) was under 100 nM. The IC50 [3, 7] was under 100 nM.
With `Cc1cn2cc(-c3ccc4c(=O)n([C@@H]5CCNC5)cc(C)c4c3)cc(F)c2n1` [Compound 452, (R)-6-(8-fluoro-2-methylimidazo[1,2-a]pyridin-6-yl)-4-methyl-2-(pyrrolidin-3-yl)isoquinolin-1(2H)-one] the IC50 [1, 4] was 1000 to 10000 nM, the IC50 [1, 5] was 1000 to 10000 nM and the AC50 ([1]; RT-qPCR) was 1000 to 10000 nM. It also gave a GI50 [2] of 1000 to 10000 nM, an IC50 [3, 6] of over 10000 nM and an AC50 ([3]; RT-qPCR) of over 10000 nM. For the same compound, the IC50 [3, 7] was over 10000 nM.
`Cc1cn2nc(-c3ccc4c(=O)n([C@@H]5CCNC6(CC6)C5)ncc4c3)cc(C)c2n1` (stereo in doubt) [Compound 368, 2-[(7R)-4-azaspiro[2.5]octan-7-yl]-6-{2,8-dimethylimidazo[1,2-b]pyridazin-6-yl}phthalazin-1-one] gave an IC50 [1, 4] of 100 to 1000 nM, an IC50 [1, 5] of 100 to 1000 nM and an AC50 ([1]; RT-qPCR) of 100 to 1000 nM. For the same compound, the GI50 [2] was 100 to 1000 nM, the IC50 [3, 6] was under 100 nM and the AC50 ([3]; RT-qPCR) was under 100 nM. The IC50 [3, 7] was under 100 nM.
In the case of `COc1cc2c(=O)n(C3CCNCC3)ccc2cc1-c1cc(C)c2nc(C)cn2n1` [Compound 449, 6-{2,8-dimethylimidazo[1,2-b]pyridazin-6-yl}-7-methoxy-2-(piperidin-4-yl)isoquinolin-1-one], the IC50 [1, 4] is reported as over 10000 nM, the IC50 [1, 5] is reported as over 10000 nM and the AC50 ([1]; RT-qPCR) is reported as over 10000 nM. The GI50 [2] was over 10000 nM, the IC50 [3, 6] was over 10000 nM and the AC50 ([3]; RT-qPCR) was over 10000 nM. The IC50 [3, 7] was over 10000 nM.
In the case of `Cc1cn2cc(-c3ccc4c(=O)n(C5CCNCC5)cc(C)c4c3)cc(F)c2n1` [Compound 440, 6-{8-fluoro-2-methylimidazo[1,2-a]pyridin-6-yl}-4-methyl-2-(piperidin-4-yl)isoquinolin-1-one], the IC50 [1, 4] is reported as under 100 nM, the IC50 [1, 5] is reported as under 100 nM and the AC50 ([1]; RT-qPCR) is reported as under 100 nM. The GI50 [2] was under 100 nM, the IC50 [3, 6] was 100 to 1000 nM and the AC50 ([3]; RT-qPCR) was 100 to 1000 nM. For the same compound, the IC50 [3, 7] was 100 to 1000 nM.
Work on `Cc1cn2cc(-c3cc(F)c4c(=O)n([C@H]5CCNC5)ccc4c3)cc(F)c2n1` (single isomer, unassigned) [Compound 396] yielded an IC50 [1, 4] of under 100 nM, an IC50 [1, 5] of under 100 nM and an AC50 ([1]; RT-qPCR) of under 100 nM. It also gave a GI50 [2] of 100 to 1000 nM, an IC50 [3, 6] of 1000 to 10000 nM and an AC50 ([3]; RT-qPCR) of 1000 to 10000 nM. It also gave an IC50 [3, 7] of 1000 to 10000 nM.
`Cc1cn2cc(-c3cc(F)c4c(=O)n(C5CCOC5)cnc4c3)cc(C#N)c2n1` (stereo not shown) [Compound 366, 6-[5-fluoro-4-oxo-3-(oxolan-3-yl)quinazolin-7-yl]-2-methylimidazo[1,2-a]pyridine-8-carbonitrile] gave an IC50 [1, 4] of 1000 to 10000 nM, an IC50 [1, 5] of 1000 to 10000 nM and an AC50 ([1]; RT-qPCR) of 1000 to 10000 nM. It also gave a GI50 [2] of 1000 to 10000 nM, an IC50 [3, 6] of 1000 to 10000 nM and an AC50 ([3]; RT-qPCR) of 1000 to 10000 nM. For the same compound, the IC50 [3, 7] was 1000 to 10000 nM.
Compound `Cc1cn2cc(-c3cc(F)c4c(=O)n(C5CCNC6(CC6)C5)ccc4c3)c(O)c(C)c2n1` (stereo not shown) [Compound 421, 2-{4-azaspiro[2.5]octan-7-yl}-8-fluoro-6-{7-hydroxy-2,8-dimethylimidazo[1,2-a]pyridin-6-yl}isoquinolin-1-one] has an IC50 [1, 4] of over 10000 nM, an IC50 [1, 5] of over 10000 nM and an AC50 ([1]; RT-qPCR) of over 10000 nM. It also gave a GI50 [2] of over 10000 nM, an IC50 [3, 6] of over 10000 nM and an AC50 ([3]; RT-qPCR) of over 10000 nM. It also gave an IC50 [3, 7] of over 10000 nM.
`Cc1cn2cc(-c3ccc4c(=O)n(C5CCNC5)cc(C)c4c3)cc(F)c2n1` (stereo not shown) [Compound 441, 6-{8-fluoro-2-methylimidazo[1,2-a]pyridin-6-yl}-4-methyl-2-(pyrrolidin-3-yl)isoquinolin-1-one] gave an IC50 [1, 4] of 1000 to 10000 nM, an IC50 [1, 5] of 1000 to 10000 nM and an AC50 ([1]; RT-qPCR) of 1000 to 10000 nM. It also gave a GI50 [2] of 1000 to 10000 nM, an IC50 [3, 6] of over 10000 nM and an AC50 ([3]; RT-qPCR) of over 10000 nM. The IC50 [3, 7] was over 10000 nM.
